US10029984B2, “Mono- or di-substituted indole derivatives as dengue viral replication inhibitors” (Janssen Pharmaceuticals, Inc., priority 2015, dated 2018)

Experiments:
DENV-3 strain H87 = test: Tetravalent RT-qPCR assay Protocol A, serotype 3; type: cell-based; settings: Dengue virus, DENV3, 72 h; RT-qPCR serotype 3 H87, Vero cells, day 3
Experimental: (§1) The antiviral activity of the compounds of the invention was tested against DENV-1 strain TC974#666 (NCPV; Table 6), DENV-2 strain 16681 (Table 7), DENV-3 strain H87 (NCPV; Table 8) and DENV-4 strains H241 (NCPV; Table 9) in a RT-qPCR assay. Therefore, Vero cells were infected with either DENV-1, or -2, or -3, or -4 in the presence or absence of test compounds. At day 3 post-infection, the cells were lysed and cell lysates were used to prepare cDNA of both a viral target (the 3′UTR of DENV; table 2) and a cellular reference gene (β-actin, table 2). Subsequently, a duplex real time PCR was performed on a Lightcycler480 instrument. The generated Cp value is inversely proportional to the amount of RNA expression of these targets. Inhibition of DENV replication by a test compound result in a shift of Cp's for the 3′UTR gene. On the other hand, if a test compound is toxic to the cells, a similar effect on β-actin expression will be observed. The comparative ΔΔCp method is used to calculate EC50, which is based on the relative gene expression of the target gene (3′UTR) normalized with the cellular housekeeping gene (β-actin).
(§2) The culture medium consisted of minimal essential medium supplemented with 2% of heat-inactivated fetal calf serum, 0.04% gentamycin (50 mg/mL) and 2 mM of L-glutamine. Vero cells, obtained from ECACC, were suspended in culture medium and 75 μL/well was added in 96-well plates (10000 cells/well), which already contain the antiviral compounds. Typically, these plates contain a 4-fold serial dilution of 9 dilution steps of the test compound at 200 times the final concentration in 100% DMSO (500 nL; final concentration range: 25 μM-0.00038 μM). In addition, each plate contains wells which are assigned as virus controls (containing cells and virus in the absence of compound) and cell controls (containing cells in the absence of virus and compound). Once the cells were added in the plates, the plates were incubated in a fully humidified incubator (37° C., 5% CO2) until the next day. Then, DENV-1 strain TC974#666 at an MOI of 0.6, DENV-2 strain 16681 at an MOI of 0.01, DENV-3 strain H87 at an MOI of 1.0 and DENV-4 strains H241 at an MOI of 0.2 and SG/06K2270DK1/2005 at an MOI of 0.16, were added. Therefore, 25 μL of virus suspension was added to all the wells containing test compound and to the wells assigned as virus control. In parallel, 25 μL of culture medium was added to the cell controls. Next, the plates were incubated for 3 days in a fully humidified incubator (37° C., 5% CO2). After 3 days, the supernatant was removed from the wells and the cells were washed twice with ice-cold PBS (˜100 μL). The cell pellets within the 96-well plates were stored at −80° C. for at least 1 day. Next, RNA was extracted using the Cells-to-CT™ lysis kit, according to the manufacture's guideline (Applied Biosystems). The cell lysates can be stored at −80° C. or immediately used in the reverse transcription step.
(§3) In preparation of the reverse transcription step, mix A (table 3A) was prepared and 7.57 μL/well was dispensed in a 96-well plate. After addition of 5 μL of the cell lysates, a five minute denaturation step at 75° C. was performed (table 3B). Afterwards, 7.43 μL of mix B was added (table 3C) and the reverse transcription step was initiated (table 3D) to generate cDNA.
(§4) Finally, a RT-qPCR mix was prepared, mix C (table 4A), dispensed in 96-well LightCycler qPCR plates to which 3 μL of cDNA was added and the qPCR was performed according to the conditions in table 4B on a LightCycler 480. Using the LightCycler software and an in-house LIMS system, dose response curves for each compound were calculated and the half maximal effective concentration (EC50) and the half maximal cytotoxic concentration (CC50) were determined.

in vitro [1] = type: cell-based; settings: African green monkey, CC50
Experimental: as §1, §2, §4

DENV-2 strain 16681 = test: Tetravalent RT-qPCR assay Protocol A, serotype 2; type: cell-based; settings: Dengue virus, DENV2, 72 h; RT-qPCR serotype 2 16681, Vero cells, day 3
Experimental: as §1, §2, §3, §4

DENV-1 strain TC974#666 = test: Tetravalent RT-qPCR assay Protocol A, serotype 1; type: cell-based; settings: Dengue virus, DENV1, 72 h; RT-qPCR serotype 1 TC974#666, Vero cells, day 3
Experimental: as §1, §2, §3, §4

Vero cells = test: in vitro; type: cell-based; settings: African green monkey
Experimental: (§5) In parallel, the toxicity of the compounds was assessed on the same plates. Once the read-out for the eGFP signal was done, 10 μL of resazurin, a cell viability stain, was added to all wells of the 384-well plates. The resazurin assay is based on the reduction of the blue resazurin by NADH, produced by the cells, into the highly fluorescent product, resorufin. The formation of pink fluorescent resorufin is directly related to the number of viable cells in the well. The plates were incubated for an additional 5 hours in a fully humidified incubator (37° C., 5% CO2). Next, the plates were measured on an Infinite reader (Tecan) using an excitation wavelength of 530 nm. The half maximal cytotoxic concentration (CC50) was also determined, defined as the concentration required to reduce the resazurin conversion by 50% compared to that of the cell control wells. Finally, the selectivity index (SI) was determined for the compounds, which was calculated as followed: SI=CC50/EC50.

DENV-2 16681 strain = test: DENV-2 antiviral assay (eGFP-labeled virus in Vero cells); type: cell-based, Dengue virus; settings: DENV-2 16681 eGFP, MOI 0.5, 3 days
Experimental: The antiviral activity of all the compounds of the invention was tested against DENV-2 16681 strain which was labeled with enhanced green fluorescent protein (eGPF; Table 1). The culture medium consists of minimal essential medium supplemented with 2% of heat-inactivated fetal calf serum, 0.04% gentamycin (50 mg/mL) and 2 mM of L-glutamine. Vero cells, obtained from ECACC, were suspended in culture medium and 25 μL was added to 384-well plates (2500 cells/well), which already contain the antiviral compounds. Typically, these plates contain a 4-fold serial dilution of 9 dilution steps of the test compound at 200 times the final concentration in 100% DMSO (200 nL). In addition, each compound concentration is tested in quadruplicate (final concentration range: 25 μM-0.00038 μM). Finally, each plate contains wells which are assigned as virus controls (containing cells and virus in the absence of compound), cell controls (containing cells in the absence of virus and compound) and medium controls (containing medium in the absence of cells, virus and compounds). To the wells assigned as medium control, 25 μL of culture medium was added instead of Vero cells. Once the cells were added to the plates, the plates were incubated for 30 minutes at room temperature to allow the cells to distribute evenly within the wells. Next, the plates were incubated in a fully humidified incubator (37° C., 5% CO2) until the next day. Then, DENV-2 strain 16681, labeled with eGFP, was added at a multiplicity of infection (MOI) of 0.5. Therefore, 15 μL of virus suspension was added to all the wells containing test compound and to the wells assigned as virus control. In parallel, 15 μL of culture medium was added to the medium and cell controls. Next, the plates were incubated for 3 days in a fully humidified incubator (37° C., 5% CO2). At the day of the read out, the eGFP fluorescence was measured using an automated fluorescence microscope at 488 nm (blue laser). Using an in-house LIMS system, inhibition dose response curves for each compound were calculated and the half maximal effective concentration (EC50) was determined. Therefore, the percent inhibition (I) for every test concentration is calculated using the following formula: I=100*(ST−SCC)/(SVC−SCC); ST, SCC and SVC are the amount of eGFP signal in the test compound, cell control and virus control wells, respectively. The EC50 represents the concentration of a compound at which the virus replication is inhibited with 50%, as measured by a 50% reduction of the eGFP fluorescent intensity compared to the virus control. The EC50 is calculated using linear interpolation.

DENV-4 strains H241 = test: Tetravalent RT-qPCR assay Protocol A, serotype 4; type: cell-based; settings: Dengue virus, DENV4, 72 h; RT-qPCR serotype 4 H241, Vero cells, day 3
Experimental: as §1, §2, §3, §4

in vitro [2] = type: cell-based; settings: African green monkey, CC50; remark: listed apart in the source
Experimental: as §5

Compound | EC50 (DENV-3 strain H87) [nM] | CC50 at 3 days (in vitro [1]) [nM] | EC50 (DENV-2 strain 16681) [nM] | EC50 (DENV-1 strain TC974#666) [nM] | CC50 (Vero cells) [nM] | EC50 (DENV-2 16681 strain; listed as 1A*) [nM] | EC50 (DENV-4 strains H241) [nM] | EC50 (DENV-2 16681 strain; listed as 3A*) [nM] | EC50 (DENV-2 16681 strain; listed as 4A*) [nM] | EC50 (DENV-2 16681 strain; listed as 5B*) [nM] | EC50 (DENV-2 16681 strain; listed as 6A*) [nM] | EC50 (DENV-2 16681 strain; listed as 7A*) [nM] | EC50 (DENV-2 16681 strain; listed as 8A*) [nM] | CC50 (in vitro [2]) [nM] | EC50 (DENV-2 16681 strain; listed as 12A*) [nM]
COc1cc(NC(C(=O)c2c[nH]c3cc(F)ccc23)c2ccc(F)cc2OC)cc(S(C)(=O)=O)c1 (single isomer, unassigned) [Enantiomer 1A, 1-(6-fluoro-1H-indol-3-yl)-2-(4-fluoro-2-methoxyphenyl)-2-((3-methoxy-5-(methylsulfonyl)phenyl)amino)ethanone] | 49.6 | 3520 | 0.83 | 5.18 | 5900 | 0.88 | 165 | – | – | – | – | – | – | – | –
COc1cc(NC(C(=O)c2c[nH]c3c(C)c(Cl)ccc23)c2ccc(F)cc2OC)cc(S(C)(=O)=O)c1 (single isomer, unassigned) [Enantiomer 3A, 1-(6-chloro-7-methyl-1H-indol-3-yl)-2-(4-fluoro-2-methoxyphenyl)-2-((3-methoxy-5-(methylsulfonyl)phenyl)amino)ethanone] | 58.6 | 3910 | 0.285 | 7.18 | 4800 | – | 121 | 0.3 | – | – | – | – | – | – | –
COc1cc(NC(C(=O)c2c[nH]c3cc(Cl)ccc23)c2ccc(F)cc2OC)cc(S(C)(=O)=O)c1 (single isomer, unassigned) [Enantiomer 4A, 1-(6-chloro-1H-indol-3-yl)-2-(4-fluoro-2-methoxyphenyl)-2-((3-methoxy-5-(methylsulfonyl)phenyl)amino)ethanone] | 55.3 | 3590 | 0.377 | 4.22 | 4400 | – | 131 | – | 0.5 | – | – | – | – | – | –
COc1cc(NC(C(=O)c2c[nH]c3cc(OC)ccc23)c2ccc(F)cc2OC)cc(S(C)(=O)=O)c1 (single isomer, unassigned) [Enantiomer 5B, 2-(4-fluoro-2-methoxyphenyl)-1-(6-methoxy-1H-indol-3-yl)-2-((3-methoxy-5-(methylsulfonyl)phenyl)amino)ethanone] | 100 | – | 1.23 | 8.89 | > 13000 | – | 186 | – | – | 1 | – | – | – | – | –
COc1cc(NC(C(=O)c2c[nH]c3c(F)cc(C)cc23)c2ccc(F)cc2OC)cc(S(C)(=O)=O)c1 (single isomer, unassigned) [Enantiomer 6A, 2-(4-fluoro-2-methoxyphenyl)-1-(7-fluoro-5-methyl-1H-indol-3-yl)-2-((3-methoxy-5-(methylsulfonyl)phenyl)amino)ethanone] | 123 | 4610 | 3.48 | 9.7 | 5000 | – | 239 | – | – | – | 2.7 | – | – | – | –
COc1cc(NC(C(=O)c2c[nH]c3cc(F)c(F)cc23)c2ccc(F)cc2OC)cc(S(C)(=O)=O)c1 (single isomer, unassigned) [Enantiomer 7A, 1-(5,6-difluoro-1H-indol-3-yl)-2-(4-fluoro-2-methoxyphenyl)-2-((3-methoxy-5-(methylsulfonyl)phenyl)amino)ethanone] | 61.6 | 3870 | 0.525 | 3.7 | 4400 | – | 142 | – | – | – | – | 0.76 | – | – | –
COc1cc(NC(C(=O)c2c[nH]c3c(C)cc(F)cc23)c2ccc(F)cc2OC)cc(S(C)(=O)=O)c1 (single isomer, unassigned) [Enantiomer 8A, 2-(4-fluoro-2-methoxyphenyl)-1-(5-fluoro-7-methyl-1H-indol-3-yl)-2-((3-methoxy-5-(methylsulfonyl)phenyl)amino)ethanone] | 82.1 | 4400 | 1.27 | 6.83 | 5100 | – | 248 | – | – | – | – | – | 1 | – | –
COc1cc(NC(C(=O)c2c[nH]c3c(Cl)c(OC)ccc23)c2ccc(F)cc2OC)cc(S(C)(=O)=O)c1 (single isomer, unassigned) [Enantiomer 12A, 1-(7-chloro-6-methoxy-1H-indol-3-yl)-2-(4-fluoro-2-methoxyphenyl)-2-((3-methoxy-5-(methylsulfonyl)phenyl)amino)ethanone] | 73.8 | – | 0.25 | 14 | – | – | 261 | – | – | – | – | – | – | > 25000 | 0.42
